The nature of test [1]: Effect on acute food intake (AFI) in normal NMRI mice. The note with it: male NMRI mice, 10 nmol/kg s.c. once, % vs. vehicle group. The format is in vivo. The method, then:
Effect on Acute Food Intake in Normal NMRI Mice
Male NMRI mice were obtained from Charles River (Charles River, Research Models & Services Germany GmbH) or from JanVier (JanVier Labs, France) at 5 weeks of age. […] Room temperature was controlled to 21° C.±1° C., with 60%±20% humidity.
Animals were transferred 5-7 days before the start of the study to a real-time food intake monitoring system, HM-2 system (MBRose, Denmark), to allow acclimatization to experimental conditions. As the animals were uniquely identified with microchips, each individual animal was identified by its microchip upon entry and exit from the food channel. Randomization of the mice for each study group (n=7-8) was based on body weight measured the day before the start of the study. A vehicle-treated (50 mM phosphate buffer pH7 with 5% Mannitol) group was included in each experiment. Six hours before the start of the night phase animals were fasted. One hour before the dark phase animals were dosed once subcutaneously (10 nmol/kg) with test peptide. […] The food intake of the treated groups was normalized (in %) to the average food intake of the group receiving vehicle (Table 1). Statistical significance was evaluated using One-way analysis of variance with Turkey's multiple comparison test. P<0.05 was considered statistically significant.

Test [2] is described as follows: Effect on body weight loss and food intake in wildtype Diet Induced Obesity (DIO) mice. The format is in vivo. The note with it: 30 nmol/kg s.c. once daily, 5 day. The source says:
Effect on Body Weight Loss in Wildtype Diet Induced Obesity Mice
Male C57BL6/J pre-fed on 60% high fat diet were obtained from The Jackson Laboratories at >16 weeks of age. Upon arrival of the Diet Induced Obesity (DIO) mice, the mice where single housed to obtain accurate and individual food intake measurements of each animal and assigned an animal number. […] During the entire study animals had ad libitum access to food and water.
Before start of treatment a stratified randomization was performed based on the body weight measured in week −1 prior study start. At study start the age of mice was around 20 weeks. Bodyweight and food intake were measured daily before compound administration. Animals were dosed around one hour before start of the night phase by subcutaneous injection of 30 nmol/kg once daily for 5 till 28 days depending on the experiment. Control animals were dosed by subcutaneous injection daily with vehicle.

This note sets out measurements from US20240091318A1, “COMBINATION THERAPY COMPRISING LONG ACTING GLP-1/GLUCAGON AND NPY2 RECEPTOR AGONISTS” (Boehringer Ingelheim International GmbH, priority 2022, published 2024).

As to `CC[C@H](C)[C@H](NC(=O)[C@H](CCC(=O)O)NC(=O)[C@H](CCC(=O)O)NC(=O)[C@@H]1CCCN1C(=O)[C@H](CO)NC(=O)[C@H](C)NC(=O)[C@H](CC(=O)O)NC(=O)[C@H](C)NC(=O)[C@H](CCC(=O)O)NC(=O)[C@@H]1CCCN1C(=O)[C@H](CCCCNC(=O)COCCOCCNC(=O)COCCOCCNC(=O)CC[C@H](NC(=O)CCCCCCCCCCCCCCCCC(=O)O)C(=O)O)NC(=O)[C@H](CCC(=O)O)NC(=O)[C@@H]1CCCN1C(=O)[C@H](C)NC(=O)CC(C)C)C(=O)N[C@@H](CCC(N)=O)C(=O)N[C@@H](CCCNC(=N)N)C(=O)N[C@@H](Cc1ccc(O)cc1)C(=O)N[C@@H](Cc1ccc(O)cc1)C(=O)N[C@H](C(=O)N[C@@H](CO)C(=O)N[C@@H](CC(C)C)C(=O)N[C@@H](CCCNC(=N)N)C(=O)N[C@@H](Cc1c[nH]cn1)C(=O)N[C@@H](Cc1ccc(O)cc1)C(=O)N[C@@H](Cc1ccc(O)cc1)C(=O)N[C@@H](CC(N)=O)C(=O)N[C@@H](Cc1c[nH]c2ccccc12)C(=O)N[C@@H](CC(C)C)C(=O)N[C@H](C(=O)N[C@@H](CCCNC(=N)N)C(=O)N[C@@H](CCC(N)=O)C(=O)N[C@@H](CCCNC(=N)N)C(=O)N[C@@H](Cc1ccc(O)cc1)C(N)=O)[C@@H](C)O)C(C)C` [Compound J, N{alpha-4}-(3-methylbutanoyl)-N{epsilon-7}-[2-(2-{2-[2-(2-{2-[(4S)-4-carboxy-4-(17-carboxyheptadecanamido)butanamido]ethoxy}ethoxy)acetamido]ethoxy}ethoxy)acetamido]-[4A,7K,9E,10A,17I,18Q,22V,28Y,30W,31L]hPYY(4-36)], in test [1], the “AFI 10 nmol/kg 24 h (food intake normalized to vehicle group)” value is reported as 29%. In addition, the “BW 30 nmol/kg 5 day (body weight loss vs. vehicle group)” value in test [2] amounted to 12.2%.

Turning to `CC(C)CC(=O)N[C@@H](C)C(=O)N1CCC[C@H]1C(=O)N[C@@H](C)C(=O)N[C@@H](CCCCNC(=O)COCCOCCNC(=O)COCCOCCNC(=O)CC[C@H](NC(=O)CCCCCCCCCCCCCCCCC(=O)O)C(=O)O)C(=O)N1CCC[C@H]1C(=O)N[C@@H](CCC(=O)O)C(=O)N[C@@H](CCC(=O)O)C(=O)N[C@@H](CC(=O)O)C(=O)N[C@@H](C)C(=O)N[C@H](C(=O)N1CCC[C@H]1C(=O)N[C@@H](CCC(=O)O)C(=O)N[C@@H](CCC(=O)O)C(=O)N[C@@H](CC(C)C)C(=O)N[C@@H](CCC(N)=O)C(=O)N[C@@H](CCCNC(=N)N)C(=O)N[C@@H](Cc1ccc(O)cc1)C(=O)N[C@@H](Cc1ccc(O)cc1)C(=O)N[C@H](C(=O)N[C@@H](CO)C(=O)N[C@@H](CC(C)C)C(=O)N[C@@H](CCCNC(=N)N)C(=O)N[C@@H](Cc1c[nH]cn1)C(=O)N[C@@H](Cc1ccc(O)cc1)C(=O)N[C@@H](Cc1ccc(O)cc1)C(=O)N[C@@H](CC(N)=O)C(=O)N[C@@H](Cc1c[nH]c2ccccc12)C(=O)N[C@@H](CC(C)C)C(=O)N[C@H](C(=O)N[C@@H](CCCNC(=N)N)C(=O)N[C@@H](CCC(N)=O)C(=O)N[C@@H](CCCNC(=N)N)C(=O)N[C@@H](Cc1ccc(O)cc1)C(N)=O)[C@@H](C)O)C(C)C)[C@@H](C)O` [Compound A, N{alpha-4}-(3-methylbutanoyl)-N{epsilon-7}-[2-(2-{2-[2-(2-{2-[(4S)-4-carboxy-4-(17-carboxyheptadecanamido)butanamido]ethoxy}ethoxy)acetamido]ethoxy}ethoxy)acetamido]-[4A,6A,7K,9E,13T,18Q,22V,28Y,30W,31L]hPYY(4-36)], the “AFI 10 nmol/kg 24 h (food intake normalized to vehicle group)” value in test [1] turned out to be 39%. The “BW 30 nmol/kg 5 day (body weight loss vs. vehicle group)” value in test [2] came to 6.7%.
